Assay results reported in patent publication US6461997B1, “Triazole sulfones having herbicidal activity” (Monsanto Technology LLC, priority 1999, dated 2002).

Key:
[1] = tested on: VERPE (creeping speedwell); assay: Pre-emergence herbicidal activity, cool season; assay type: in vivo, Veronica persicaria; conditions: lowest tested rate with 80% or greater inhibition; rates 300, 100, 30, 10 g/ha; about 14 days
Outline: (§1)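 Seeds sown in sterilised fertilised topsoil received surface-applied compound in 50:50 acetone/water, typically at 300, 100, 30 and 10 g/ha, then greenhouse-grown at 30/21° C (warm-season species) or 18/13° C (cool-season species). Percent inhibition versus untreated plants was scored at about 14 days, giving GR80; an asterisk marks activity short of 80% at the top rate.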

[2] = tested on: STEME (common chickweed); assay: Pre-emergence herbicidal activity, cool season; assay type: in vivo, Stellaria media; conditions: lowest tested rate with 80% or greater inhibition; rates 300, 100, 30, 10 g/ha; about 14 days
Outline: as §1

[3] = tested on: DIGSA (large crabgrass); assay: Pre-emergence herbicidal activity, warm season; assay type: in vivo, Digitaria sanguinalis; conditions: GR80 = lowest tested rate (300, 100, 30, 10 g/ha) with 80% or greater inhibition; approx. 14 days after treating; 30/21° C.
Outline: as §1

[4] = tested on: SASKR (russian thistle); assay: Pre-emergence herbicidal activity, cool season; assay type: in vivo, Salsola kali; conditions: lowest tested rate with 80% or greater inhibition; rates 300, 100, 30, 10 g/ha; about 14 days
Outline: as §1

[5] = tested on: SETFA (giant foxtail); assay: Pre-emergence herbicidal activity, warm season; assay type: in vivo, Setaria faberi; conditions: GR80 = lowest tested rate (300, 100, 30, 10 g/ha) with 80% or greater inhibition; approx. 14 days after treating; 30/21° C.
Outline: as §1

[6] = tested on: SORHA (johnsongrass (seedling)); assay: Pre-emergence herbicidal activity, warm season; assay type: in vivo, Sorghum halepense; conditions: GR80 = lowest tested rate (300, 100, 30, 10 g/ha) with 80% or greater inhibition; approx. 14 days after treating; 30/21° C.
Outline: as §1

[7] = tested on: SORVU (shattercane); assay: Pre-emergence herbicidal activity, warm season; assay type: in vivo, Sorghum vulgare; conditions: GR80 = lowest tested rate (300, 100, 30, 10 g/ha) with 80% or greater inhibition; approx. 14 days after treating; 30/21° C.
Outline: as §1

[8] = tested on: SETVI (green foxtail); assay: Pre-emergence herbicidal activity, cool season; assay type: in vivo, Setaria viridis; conditions: GR80 = lowest tested rate (300, 100, 30, 10 g/ha) with 80% or greater inhibition; approx. 14 days after treating; 18/13° C.
Outline: as §1

[9] = tested on: POROL (common purslane); assay: Pre-emergence herbicidal activity, warm season; assay type: in vivo, Portulaca oleracea; conditions: GR80 = lowest tested rate (300, 100, 30, 10 g/ha) with 80% or greater inhibition; approx. 14 days after treating; 30/21° C.
Outline: as §1

[10] = tested on: LAMPU (purple deadnettle); assay: Pre-emergence herbicidal activity, cool season; assay type: in vivo, Lamium purpureum; conditions: lowest tested rate with 80% or greater inhibition; rates 300, 100, 30, 10 g/ha; about 14 days
Outline: as §1

[11] = tested on: LOLMG (annual ryegrass); assay: Pre-emergence herbicidal activity, cool season; assay type: in vivo, Lolium multiflorum; conditions: GR80 = lowest tested rate (300, 100, 30, 10 g/ha) with 80% or greater inhibition; approx. 14 days after treating; 18/13° C.
Protocol: (§2) Tables 5 to 8 summarize results of tests conducted as described below to determine the pre-emergence herbicidal activity, in the form of a GR80 value, of illustrative compounds of this invention. […] Compounds of the invention were typically applied at rates of 300, 100, 30, and 10 g/ha. Where herbicidal activity was evident but 80% inhibition was not achieved at the highest rate tested, an asterisk (*) is shown in the following tables.
(§3) The pre-emergence tests were conducted by the following procedure. Topsoil was sieved to pass through a 1.27 cm screen. Fertilizer was added to the topsoil and the mixture was then sterilized by heating. The topsoil mixture was placed in a pot and compacted to a depth of 1.0 to 1.25 cm from the top of the pot. Seeds of each of several monocotyledonous and dicotyledonous annual plant species were placed on top of the soil. Additional soil was subsequently placed over the seeds to level-fill the pot. A known amount of each test compound dissolved or suspended in an appropriate organic solvent was diluted with a 50:50 mix of acetone and water and applied to the surface of the soil. After treatment the plants were placed in a greenhouse where they received 0.64 cm of overhead irrigation. All subsequent watering consisted of a light overhead mist and/or subirrigation as needed for germination and growth. Tables 5 and 6 below relate to warm season plant species which were placed after pre-emergence treatment in a greenhouse with a 30/21° C. day/night temperature regime. Tables 7 and 8 below relates to cool season plant species placed after pre-emergence treatment in a greenhouse or growth chamber with an 18/13° C. day/night temperature regime.
(§4) Approximately 14 days after planting and treating, the plants were observed and herbicidal efficacy recorded as percent inhibition by comparison with untreated plants.
(§5) The plant species usually regarded as weeds which were utilized in the tests are identified in the tables below according to the following legend, in which “d” indicates a dicotyledonous species and “m” a monocotyledonous species. All monocotyledonous species included in the tests herein are grasses.

[12] = tested on: BROTE (downy brome); assay: Pre-emergence herbicidal activity, cool season; assay type: in vivo, Bromus tectorum; conditions: GR80 = lowest tested rate (300, 100, 30, 10 g/ha) with 80% or greater inhibition; approx. 14 days after treating; 18/13° C.
Protocol: as §2, §3, §4, §5

[13] = tested on: BRAPP (broadleaf signalgrass); assay: Pre-emergence herbicidal activity, warm season; assay type: in vivo, Brachiaria platyphylla; conditions: GR80 = lowest tested rate (300, 100, 30, 10 g/ha) with 80% or greater inhibition; approx. 14 days after treating; 30/21° C.
Outline: as §1

[14] = tested on: CHEAL (common lambsquarters); assay: Pre-emergence herbicidal activity, warm season; assay type: in vivo, Chenopodium album; conditions: GR80 = lowest tested rate (300, 100, 30, 10 g/ha) with 80% or greater inhibition; approx. 14 days after treating; 30/21° C.
Outline: as §1

[15] = tested on: SINAR (wild mustard); assay: Pre-emergence herbicidal activity, cool season; assay type: in vivo, Sinapis arvensis; conditions: lowest tested rate with 80% or greater inhibition; rates 300, 100, 30, 10 g/ha; about 14 days
Outline: as §1

[16] = tested on: ECHCG (barnyardgrass); assay: Pre-emergence herbicidal activity, warm season; assay type: in vivo, Echinochloa crus-galli; conditions: GR80 = lowest tested rate (300, 100, 30, 10 g/ha) with 80% or greater inhibition; approx. 14 days after treating; 30/21° C.
Outline: as §1

[17] = tested on: GALAP (catchweed bedstraw); assay: Pre-emergence herbicidal activity, cool season; assay type: in vivo, Galium aparine; conditions: lowest tested rate with 80% or greater inhibition; rates 300, 100, 30, 10 g/ha; about 14 days
Outline: as §1

[18] = tested on: AGSST (creeping bentgrass); assay: Pre-emergence herbicidal activity, cool season; assay type: in vivo, Agrostis stolonifera; conditions: GR80 = lowest tested rate (300, 100, 30, 10 g/ha) with 80% or greater inhibition; approx. 14 days after treating; 18/13° C.
Outline: as §1

[19] = tested on: PANMI (wild proso millet); assay: Pre-emergence herbicidal activity, warm season; assay type: in vivo, Panicum miliaceum; conditions: GR80 = lowest tested rate (300, 100, 30, 10 g/ha) with 80% or greater inhibition; approx. 14 days after treating; 30/21° C.
Outline: as §1

[20] = tested on: POLCO (wild buckwheat); assay: Pre-emergence herbicidal activity, cool season; assay type: in vivo, Polygonum convolvulus; conditions: lowest tested rate with 80% or greater inhibition; rates 300, 100, 30, 10 g/ha; about 14 days
Outline: as §1

[21] = tested on: ALOMY (blackgrass); assay: Pre-emergence herbicidal activity, cool season; assay type: in vivo, Alopecurus myosuroides; conditions: GR80 = lowest tested rate (300, 100, 30, 10 g/ha) with 80% or greater inhibition; approx. 14 days after treating; 18/13° C.
Outline: as §1

[22] = tested on: AMARE (redroot pigweed); assay: Pre-emergence herbicidal activity, warm season; assay type: in vivo, Amaranthus retroflexus; conditions: GR80 = lowest tested rate (300, 100, 30, 10 g/ha) with 80% or greater inhibition; approx. 14 days after treating; 30/21° C.
Protocol: as §2, §3, §4, §5

[23] = tested on: ABUTH (velvetleaf); assay: Pre-emergence herbicidal activity, warm season; assay type: in vivo, Abutilon theophrasti; conditions: GR80 = lowest tested rate (300, 100, 30, 10 g/ha) with 80% or greater inhibition; approx. 14 days after treating; 30/21° C.
Protocol: as §2, §3, §4, §5

[24] = tested on: CONAR (field bindweed); assay: Pre-emergence herbicidal activity, warm season; assay type: in vivo, Convolvulus arvensis; conditions: GR80 = lowest tested rate (300, 100, 30, 10 g/ha) with 80% or greater inhibition; approx. 14 days after treating; 30/21° C.
Protocol: as §2, §3, §4, §5

## CCCN(CC)C(=O)n1cnc(S(=O)(=O)C(F)(F)C(F)(F)Br)n1 [Example 75]
[1]
  Pre-emergence activity GR80, VERPE: 10 g/ha
[2]
  Pre-emergence activity GR80, STEME: 30 g/ha
[3]
  Pre-emergence activity (GR80) DIGSA: 300 g/ha
[4]
  Pre-emergence activity GR80, SASKR: 10 g/ha
[5]
  Pre-emergence activity (GR80) SETFA: 300 g/ha
[6]
  Pre-emergence activity (GR80) SORHA: 300 g/ha
[7]
  Pre-emergence activity (GR80) SORVU: 300 g/ha
[8]
  Pre-emergence activity (GR80) SETVI: 30 g/ha
[9]
  Pre-emergence activity (GR80) POROL: 300 g/ha
[10]
  Pre-emergence activity GR80, LAMPU: 30 g/ha
[11]
  Pre-emergence activity (GR80) LOLMG: 300 g/ha
[12]
  Pre-emergence activity (GR80) BROTE: 300 g/ha
[13]
  Pre-emergence activity (GR80) BRAPP: 300 g/ha
[14]
  Pre-emergence activity (GR80) CHEAL: 300 g/ha
[15]
  Pre-emergence activity GR80, SINAR: 30 g/ha
[16]
  Pre-emergence activity (GR80) ECHCG: 100 g/ha
[17]
  Pre-emergence activity GR80, GALAP: 300 g/ha
[18]
  Pre-emergence activity (GR80) AGSST: 30 g/ha
[19]
  Pre-emergence activity (GR80) PANMI: 100 g/ha
[20]
  Pre-emergence activity GR80, POLCO: [empty]

## COCCN(C)C(=O)n1cnc(S(=O)(=O)C(F)(F)Cl)n1 [Example 88]
[1]
  Pre-emergence activity GR80, VERPE: 30 g/ha
[2]
  Pre-emergence activity GR80, STEME: 10 g/ha
[3]
  Pre-emergence activity (GR80) DIGSA: 300 g/ha
[4]
  Pre-emergence activity GR80, SASKR: 30 g/ha
[8]
  Pre-emergence activity (GR80) SETVI: 100 g/ha
[10]
  Pre-emergence activity GR80, LAMPU: 10 g/ha
[11]
  Pre-emergence activity (GR80) LOLMG: 300 g/ha
[12]
  Pre-emergence activity (GR80) BROTE: 300 g/ha
[21]
  Pre-emergence activity (GR80) ALOMY: 300 g/ha
[15]
  Pre-emergence activity GR80, SINAR: 30 g/ha
[17]
  Pre-emergence activity GR80, GALAP: 100 g/ha
[18]
  Pre-emergence activity (GR80) AGSST: 100 g/ha
[19]
  Pre-emergence activity (GR80) PANMI: 300 g/ha
[22]
  Pre-emergence activity (GR80) AMARE: 100 g/ha
[20]
  Pre-emergence activity GR80, POLCO: 300 g/ha

## CN(C(=O)n1cnc(S(=O)(=O)C(F)(F)Cl)n1)C1CCCCC1 [Example 91]
[1]
  Pre-emergence activity GR80, VERPE: 10 g/ha
[2]
  Pre-emergence activity GR80, STEME: 30 g/ha
[23]
  Pre-emergence activity (GR80) ABUTH: 300 g/ha
[4]
  Pre-emergence activity GR80, SASKR: 30 g/ha
[7]
  Pre-emergence activity (GR80) SORVU: 300 g/ha
[8]
  Pre-emergence activity (GR80) SETVI: 300 g/ha
[10]
  Pre-emergence activity GR80, LAMPU: 30 g/ha
[11]
  Pre-emergence activity (GR80) LOLMG: 300 g/ha
[12]
  Pre-emergence activity (GR80) BROTE: 300 g/ha
[21]
  Pre-emergence activity (GR80) ALOMY: 300 g/ha
[15]
  Pre-emergence activity GR80, SINAR: 10 g/ha
[17]
  Pre-emergence activity GR80, GALAP: 100 g/ha
[18]
  Pre-emergence activity (GR80) AGSST: 100 g/ha
[19]
  Pre-emergence activity (GR80) PANMI: 100 g/ha
[20]
  Pre-emergence activity GR80, POLCO: 100 g/ha

## CN(Cc1ccccc1)C(=O)n1cnc(S(=O)(=O)C(F)(F)Cl)n1 [Example 92]
[1]
  Pre-emergence activity GR80, VERPE: [empty]
[2]
  Pre-emergence activity GR80, STEME: [empty]
[4]
  Pre-emergence activity GR80, SASKR: [empty]
[10]
  Pre-emergence activity GR80, LAMPU: [empty]
[14]
  Pre-emergence activity (GR80) CHEAL: 300 g/ha
[15]
  Pre-emergence activity GR80, SINAR: [empty]
[24]
  Pre-emergence activity (GR80) CONAR: 300 g/ha
[17]
  Pre-emergence activity GR80, GALAP: [empty]
[20]
  Pre-emergence activity GR80, POLCO: [empty]
